The results in this text go back to patent US10414763B2 (CANCER RESEARCH TECHNOLOGY LIMITED, priority 2014, dated 2019).

By IC50 is commonly meant the midpoint of a concentration-inhibition curve.

The target of the assay is T1, full-length human PKCι (Homo sapiens, UniProt P41743).
T1 construct: Recombinant, full-length human PKCι expressed in Sf21 insect cells is also commercially available; purchased EMD Millipore; host or cells: Sf21 insect cells (baculovirus)
T1 sequence (P41743 1-596): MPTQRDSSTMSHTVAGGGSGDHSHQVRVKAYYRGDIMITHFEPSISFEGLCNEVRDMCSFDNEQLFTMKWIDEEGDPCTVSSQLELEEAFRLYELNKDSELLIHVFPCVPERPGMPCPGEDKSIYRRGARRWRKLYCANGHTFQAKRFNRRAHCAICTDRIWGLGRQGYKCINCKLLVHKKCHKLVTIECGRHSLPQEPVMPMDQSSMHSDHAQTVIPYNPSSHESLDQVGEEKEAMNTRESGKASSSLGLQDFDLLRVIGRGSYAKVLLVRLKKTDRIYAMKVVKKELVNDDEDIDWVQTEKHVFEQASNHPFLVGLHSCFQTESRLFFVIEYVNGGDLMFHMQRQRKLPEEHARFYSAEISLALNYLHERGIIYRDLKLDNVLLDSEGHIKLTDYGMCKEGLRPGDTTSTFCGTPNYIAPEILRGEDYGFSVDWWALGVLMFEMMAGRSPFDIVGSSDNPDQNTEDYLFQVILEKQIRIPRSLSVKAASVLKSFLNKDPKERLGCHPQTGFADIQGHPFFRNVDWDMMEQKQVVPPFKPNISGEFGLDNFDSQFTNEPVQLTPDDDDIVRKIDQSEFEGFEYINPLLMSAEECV
In words: PKCι IC50 IMAP fluorescence polarisation assay, full-length enzyme, 150 μM ATP. It counts as biochemical. The following applies: read-out: IC50 in IMAP assay against full length PKCi at 150 μM ATP. The essentials:
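IMAP fluorescence polarisation kinase assay: 15 pM baculovirus-expressed human PKCiota with 100 nM FAM-pseudosubstrate peptide and 150 μM ATP, 1 h at 25 °C. IMAP detection reagent then 2 h at 25 °C before FP measurement. Inhibition referenced to no-compound and no-enzyme controls for IC50 fitting.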
As for `CC1(C)CNCCC1Nc1nc(-c2ccnc(Nc3nc(F)cc(F)c3F)c2)nc2cncc(C3CCC3)c12` (stereo not shown) [Example 87, {5-Cyclobutyl-2-[2-(3,4,6-trifluoro-pyridin-2-ylamino)-pyridin-4-yl]-pyrido[3,4-d]pyrimidin-4-yl}-(3,3-dimethyl-piperidin-4-yl)-amine], the IC50 is less than 100 nM.
The result for `Cc1cc2c(-c3nc(NC4CCNCC4(C)C)c4c(C5CCC5)cncc4n3)ccnc2[nH]1` (stereo not shown) [Example 101, [5-Cyclobutyl-2-(2-methyl-1H-pyrrolo[2,3-b]pyridin-4-yl)-pyrido[3,4-d]pyrimidin-4-yl]-(3,3-dimethyl-piperidin-4-yl)-amine] reads less than 100 nM; that for `CN(c1nc(-c2ccnc3[nH]c(-c4csc(C(C)(C)C)n4)cc23)nc2cncc(C3CC3)c12)C1CCNCC1(C)C` (stereo not shown) [Example 32, {2-[2-(2-tert-Butyl-thiazol-4-yl)-1H-pyrrolo[2,3-b]pyridin-4-yl]-5-cyclopropyl-pyrido[3,4-d]pyrimidin-4-yl}-(3,3-dimethyl-piperidin-4-yl)-methyl-amine], less than 100 nM; that for `CC1(C)CNCC[C@@H]1Nc1nc(-c2ccnc(Nc3c(F)cccc3F)c2)nc2cncc(C3CC3)c12` [Example 254, {5-Cyclopropyl-2-[2-(2,6-difluoro-phenylamino)-pyridin-4-yl]-pyrido[3,4-d]pyrimidin-4-yl}-((S)-3,3-dimethyl-piperidin-4-yl)-amine], less than 100 nM.
As for `CC1(C)CNCC[C@@H]1Nc1nc(-c2ccnc(Nc3cc(F)ccn3)c2)nc2cncc(C3CCC3)c12` [Example 382, {5-Cyclobutyl-2-[2-(4-fluoro-pyridin-2-ylamino)-pyridin-4-yl]-pyrido[3,4-d]pyrimidin-4-yl}-((S)-3,3-dimethyl-piperidin-4-yl)-amine], the figure is less than 100 nM; as for `OC1CNCCC(Nc2nc(-c3ccnc4[nH]c5ccccc5c34)nc3cncc(C4CCC4)c23)C1` (racemic) [Example 231, Trans- or cis-(±)-5-[5-Cyclobutyl-2-(9H-pyrido[2,3-b]indol-4-yl)-pyrido[3,4-d]pyrimidin-4-ylamino]-azepan-3-ol], less than 100 nM; as for `Clc1ccc(Cl)c(-c2cc3c(-c4nc(N5CCC6NCCC65)c5c(C6CC6)cncc5n4)ccnc3[nH]2)c1` (stereo not shown) [Example 103, 5-Cyclopropyl-2-[2-(2,5-dichloro-phenyl)-1H-pyrrolo[2,3-b]pyridin-4-yl]-4-(hexahydro-pyrrolo[3,2-b]pyrrol-1-yl)-pyrido[3,4-d]pyrimidine], less than 100 nM.
With `COc1cncc2nc(-c3ccnc(Nc4nc(F)ccc4F)c3)nc(N[C@H]3CCNCC3(C)C)c12` [Example 268, 2-[2-[(3,6-difluoro-2-pyridyl)amino]-4-pyridyl]-N-[(4S)-3,3-dimethyl-4-piperidyl]-5-methoxy-pyrido[3,4-d]pyrimidin-4-amine], the IC50 was less than 100 nM.
As for `Fc1ccc(Cl)c(-c2cc3c(-c4nc(N5CCNCC5)c5c(C6CC6)cncc5n4)ccnc3[nH]2)c1` [Example 222, 2-[2-(2-Chloro-5-fluoro-phenyl)-1H-pyrrolo[2,3-b]pyridin-4-yl]-5-cyclopropyl-4-piperazin-1-yl-pyrido[3,4-d]pyrimidine], the figure is less than 100 nM.
The result for `C[C@@H]1CNCC[C@@H]1Nc1nc(-c2ccnc(Nc3ncccc3F)c2)nc2cncc(C3CCC3)c12` (racemic) [Example 282, {5-Cyclobutyl-2-[2-(3-fluoro-pyridin-2-ylamino)-pyridin-4-yl]-pyrido[3,4-d]pyrimidin-4-yl}-(rac-(3R,4S)-3-methyl-piperidin-4-yl)-amine] reads less than 100 nM.
Consider `O[C@]12CCN(c3nc(-c4ccnc5[nH]c(-c6ccccc6Cl)cc45)nc4cncc(C5CC5)c34)[C@H]1CCNC2` (racemic) [Example 143, (±)-(3aS,7aS)-1-{2-[2-(2-Chloro-phenyl)-1H-pyrrolo[2,3-b]pyridin-4-yl]-5-cyclopropyl-pyrido[3,4-d]pyrimidin-4-yl}-octahydro-pyrrolo [3,2-c]pyridin-3a-ol], for which the IC50 is less than 100 nM.
As for `Clc1ccc(-c2cc3c(-c4nc(N5CCC6NCCC65)c5c(C6CC6)cncc5n4)ccnc3[nH]2)cc1` (stereo not shown) [Example 140, 2-[2-(4-Chloro-phenyl)-1H-pyrrolo[2,3-b]pyridin-4-yl]-5-cyclopropyl-4-(hexahydro-pyrrolo[3,2-b]pyrrol-1-yl)-pyrido[3,4-d]pyrimidine], the figure is less than 100 nM.
As for `Fc1ccc(F)c(Nc2cc(-c3nc(N4CCC5NCCCC54)c4c(C5CCC5)cncc4n3)ccn2)n1` (stereo not shown) [Example 124, {4-[5-Cyclobutyl-4-(octahydro-pyrrolo[3,2-b]pyridin-1-yl)-pyrido[3,4-d]pyrimidin-2-yl]-pyridin-2-yl}-(3,6-difluoro-pyridin-2-yl)-amine], the figure is less than 100 nM.
As to `C[C@@H]1C[C@@H](Nc2nc(-c3ccnc(Nc4nc(F)ccc4F)c3)nc3cncc(C4CCC4)c23)CCN1` (racemic) [Example 387, {5-Cyclobutyl-2-[2-(3,6-difluoro-pyridin-2-ylamino)-pyridin-4-yl]-pyrido[3,4-d]pyrimidin-4-yl}-(rac-(2R,4S)-2-methyl-piperidin-4-yl)-amine], the IC50 was less than 100 nM.
As for `CC1(C)CNCC[C@@H]1Nc1nc(-c2ccnc(Nc3ncc(C#N)cc3F)c2)nc2cncc(C3CCC3)c12` [Example 320, 6-{4-[5-Cyclobutyl-4-((S)-3,3-dimethyl-piperidin-4-ylamino)-pyrido[3,4-d]pyrimidin-2-yl]-pyridin-2-ylamino}-5-fluoro-nicotinonitrile], the figure is less than 100 nM; as for `N[C@@H]1CN(c2nc(-c3ccnc4[nH]c5ccccc5c34)nc3cncc(C4CCC4)c23)C[C@H]1O` (racemic) [Example 343, rac-(3R,4R)-4-Amino-1-[5-cyclobutyl-2-(9H-pyrido[2,3-b]indol-4-yl)-pyrido[3,4-d]pyrimidin-4-yl]-pyrrolidin-3-ol], 100 to 1000 nM.
Regarding `O[C@H]1CNCC[C@H]1Nc1nc(-c2ccnc(Nc3ncccc3F)c2)nc2cncc(C3CC3)c12` (racemic) [Example 305, rac-(3S,4R)-4-{5-Cyclopropyl-2-[2-(3-fluoro-pyridin-2-ylamino)-pyridin-4-yl]-pyrido[3,4-d]pyrimidin-4-ylamino}-piperidin-3-ol], the IC50 lay within 100 to 1000 nM.
The result for `CC1(C)CNCC[C@@H]1Nc1nc(-c2ccnc3[nH]c(C(=O)NC4CCCCC4)cc23)nc2cncc(C3CC3)c12` [Example 355, 4-[5-Cyclopropyl-4-((S)-3,3-dimethyl-piperidin-4-ylamino)-pyrido[3,4-d]pyrimidin-2-yl]-1H-pyrrolo[2,3-b]pyridine-2-carboxylic acid cyclohexylamide] reads less than 100 nM; that for `Fc1cc(F)c(Nc2cc(-c3nc(N4CCC5NCCC54)c4c(C5CCC5)cncc4n3)ccn2)nc1F` (stereo not shown) [Example 98, {4-[5-Cyclobutyl-4-(hexahydro-pyrrolo[3,2-b]pyrrol-1-yl)-pyrido[3,4-d]pyrimidin-2-yl]-pyridin-2-yl}-(3,5,6-trifluoro-pyridin-2-yl)-amine], less than 100 nM.
The result for `c1cc(-c2nc(N3CCNCC3)c3c(C4CC4)cncc3n2)cc(Nc2nc(C3CC3)cs2)n1` [Example 37, [4-(5-Cyclopropyl-4 piperazin-1-yl-pyrido[3,4-d]pyrimidin-2-yl)-pyridin-2-yl]-(4-cyclopropyl-thiazol-2-yl)-amine] reads less than 100 nM; that for `Clc1ccc(-c2cc3c(-c4nc(N5CCNCC5)c5c(C6CC6)cncc5n4)ccnc3[nH]2)c(Cl)c1` [Example 18, 5-Cyclopropyl-2-[2-(2,4-dichloro-phenyl)-1H-pyrrolo[2,3-b]pyridin-4-yl]-4-piperazin-1-yl-pyrido[3,4-d] pyrimidine], less than 100 nM; that for `CC1(C)CNCC[C@@H]1Nc1nc(-c2ccnc3[nH]c(C(F)(F)F)cc23)nc2cncc(C3CCC3)c12` [Example 228, [5-Cyclobutyl-2-(2-trifluoromethyl-1H-pyrrolo[2,3-b]pyridin-4-yl)-pyrido[3,4-d]pyrimidin-4-yl]-((S)-3,3-dimethyl-piperidin-4-yl)-amine], less than 100 nM.
The result for `C[C@@]1(O)CNCC[C@H]1Nc1nc(-c2ccnc3[nH]c4ccccc4c23)nc2cncc(C3CC3)c12` (racemic) [Example 247, rac-(3R,4R)-4-[5-Cyclopropyl-2-(9H-pyrido[2,3-b]indol-4-yl)-pyrido[3,4-d]pyrimidin-4-ylamino]-3-methyl-piperidin-3-ol] reads less than 100 nM; that for `Cc1cncc(-c2cc3c(-c4nc(N[C@H]5CCNCC5(C)C)c5c(C6CC6)cncc5n4)ccnc3[nH]2)c1` [Example 362, {5-Cyclopropyl-2-[2-(5-methyl-pyridin-3-yl)-1H-pyrrolo[2,3-b]pyridin-4-yl]-pyrido[3,4-d]pyrimidin-4-yl}-((S)-3,3-dimethyl-piperidin-4-yl)-amine], less than 100 nM; that for `CC1(C)CNCC[C@@H]1Nc1nc(-c2ccnc(Nc3nc4ccc(F)cc4o3)c2)nc2cncc(C3CC3)c12` [Example 332, N-[4-[5-Cyclopropyl-4-[[(4S)-3,3-dimethyl-4-piperidyl]amino]pyrido [3,4-d]pyrirnidin-2-yl]-2-pyridyl]-6-fluoro-1,3-benzoxazol-2-amine], less than 100 nM.
